Patent publication US12606528B2, “Methods and materials for inhibiting NF-kB activity” (University of Pittsburgh - Of the Commonwealth System of …, priority 2019, dated 2026)
Like-named read-outs stand apart in the source and are kept apart here.

Legend:
NF-κB = NF-κB assay: THP1-NF-κB-LUC cells, LPS-stimulated secreted luciferase; format: cell-based; details: THP1-NF-κB-LUC cells, read-out: IC50 (NF-κB assay)
Summary of the method: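 THP1-NF-κB-LUC cells (25k/well) were pretreated with compounds for 2 h, then stimulated with LPS (10 ng/mL) for 18 h. Secreted luciferase was measured and normalized to vehicle, and IC50 was fitted from the concentration series.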

TNF release = experiment: TNF assay: TNF release from LPS-stimulated human PBMCs (TNF ELISA); format: cell-based; details: PBMC, read-out: IC50 (TNF assay)
Summary of the method: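 Human PBMCs at 10k/well pretreated with compound dilutions 2 h, then stimulated with LPS (10 ng/mL) for 18 h. TNF in supernatants quantified by ELISA; IC50 for inhibition of TNF release fitted from concentration–response.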

[1] = compounds 2 hours before LPS (10 ng/mL) for 18 hours, secreted luciferase
[2] = human PBMCs, compounds 2 hours before LPS (10 ng/ml) for 18 hours, supernatant TNF ELISA
[3] = LPS-stimulated human PBMCs, TNF ELISA

| Compound | IC50 (NF-κB; [1]) | IC50 (TNF release; [2]) | IC50 (NF-κB; LPS-stimulated) | IC50 (TNF release; [3]) |
| --- | --- | --- | --- | --- |
| O=S(=O)(c1ccc(Cl)cc1)c1cnccc1O [BC19456] | > 10 µM | > 10 µM |  |  |
| COc1ccc(S(=O)(=O)c2cnccc2O)cc1 [BC19457] | > 10 µM | > 10 µM |  |  |
| Cc1ccc([S+]([O-])c2cnccc2O)c(C)c1 (stereo not drawn) [BC19458] | > 10 µM | > 10 µM |  |  |
| O=S(=O)(c1ccc(F)cc1)c1cnccc1O [BC19459] | > 10 µM | > 10 µM |  |  |
| O=S(=O)(c1ccccc1)c1cnccc1O [BC19461] | > 10 µM | > 10 µM |  |  |
| COc1cccc(-c2nc(S(=O)(=O)c3ccc(Cl)cc3)c([S+]([O-])CC3CC3)[nH]2)c1 (stereo not drawn) [BC19462] |  |  | 1 to 10 µM | > 10 µM |
| CC(C)C[S+]([O-])c1oc(-c2ccc(Cl)cc2)nc1S(=O)(=O)c1ccc(Cl)cc1 (stereo not drawn) [BC19463] |  |  | < 0.1 µM | 0.1 to 1 µM |
| O=S(=O)(c1ccc(Cl)cc1)c1nc(-c2ccc(Cl)cc2)oc1[S+]([O-])CC1CC1 (stereo not drawn) [BC19464] |  |  | 0.1 to 1 µM | < 0.1 µM |
| CCC[S+]([O-])c1[nH]c(-c2ccccc2)nc1S(=O)(=O)c1ccc(Cl)cc1 (stereo not drawn) [BC19465] |  |  | 1 to 10 µM | > 10 µM |
| O=S(=O)(c1ccc(Cl)cc1)c1nc(-c2ccccc2)[nH]c1[S+]([O-])CC1CC1 (stereo not drawn) [BC19466] |  |  | 1 to 10 µM | > 10 µM |
| O=S(=O)(CC1CC1)c1[nH]c(-c2ccccc2)nc1S(=O)(=O)c1ccc(Cl)cc1 [BC19467] |  |  | 1 to 10 µM | 1 to 10 µM |
| COCCS(=O)(=O)c1[nH]c(-c2ccccc2)nc1S(=O)(=O)c1ccc(Cl)cc1 [BC19468] |  |  | 1 to 10 µM | > 10 µM |
| O=S(=O)(c1ccc(F)cc1)c1nc(-c2ccccc2)[nH]c1[S+]([O-])CC1CC1 (stereo not drawn) [BC19469] |  |  | 1 to 10 µM | > 10 µM |
| O=S(=O)(CC1CC1)c1[nH]c(-c2ccccc2)nc1S(=O)(=O)c1ccc(F)cc1 [BC19470] |  |  | > 10 µM | > 10 µM |
| CS(=O)(=O)c1sc(-c2ccccc2)nc1S(=O)(=O)c1ccc(Cl)cc1 [BC19471] |  |  | 1 to 10 µM | 1 to 10 µM |
| CCC[S+]([O-])c1sc(-c2ccccc2)nc1S(=O)(=O)c1ccc(Cl)cc1 (stereo not drawn) [BC19472] |  |  | > 10 µM | > 10 µM |
| CC(C)CS(=O)(=O)c1sc(-c2ccccc2)nc1S(=O)(=O)c1ccc(Cl)cc1 [BC19473] |  |  | > 10 µM | > 10 µM |

| Compound | IC50 (NF-κB; [1]) | IC50 (TNF release; [2]) | IC50 (NF-κB; LPS-stimulated) | IC50 (TNF release; [3]) |
| --- | --- | --- | --- | --- |
| CN(C)CC[S+]([O-])c1sc(-c2ccccc2)nc1S(=O)(=O)c1ccc(Cl)cc1 (stereo not drawn) [BC19474] |  |  | 1 to 10 µM | > 10 µM |
| CCCS(=O)(=O)c1sc(-c2cccc(F)c2)nc1S(=O)(=O)c1ccc(Cl)cc1 [BC19475] |  |  | 1 to 10 µM | 1 to 10 µM |
| CC(C)S(=O)(=O)c1sc(-c2cccc(F)c2)nc1S(=O)(=O)c1ccc(Cl)cc1 [BC19476] |  |  | > 10 µM | > 10 µM |
| CC(C)CS(=O)(=O)c1sc(-c2cccc(F)c2)nc1S(=O)(=O)c1ccc(Cl)cc1 [BC19477] |  |  | > 10 µM | > 10 µM |
| O=S(=O)(c1ccc(Cl)cc1)c1nc(-c2cccc(F)c2)sc1[S+]([O-])CC1CC1 (stereo not drawn) [BC19478] |  |  | > 10 µM | 1 to 10 µM |
| COCC[S+]([O-])c1sc(-c2ccc(Cl)cc2)nc1S(=O)(=O)c1ccc(Cl)cc1 (stereo not drawn) [BC19479] |  |  | > 10 µM | > 10 µM |
| CC(C)[S+]([O-])c1sc(-c2ccc(Cl)cc2)nc1S(=O)(=O)c1ccc(Cl)cc1 (stereo not drawn) [BC19480] |  |  | > 10 µM | > 10 µM |
| CS(=O)(=O)c1cc2c(c(S(=O)(=O)Nc3ccc(F)c(F)c3)c1)OCC(=O)N2 [BC19481] | < 0.1 µM | > 10 µM |  |  |
| CS(=O)(=O)c1cc2c(c(S(=O)(=O)Nc3ccccc3)c1)OCC(=O)N2 [BC19482] | 0.1 to 1 µM | > 10 µM |  |  |
| CS(=O)(=O)c1cc2c(c(S(=O)(=O)Nc3ccc(Cl)cc3)c1)OCC(=O)N2 [BC19483] | < 0.1 µM | > 10 µM |  |  |
| CCc1ccc(NS(=O)(=O)c2cc(S(C)(=O)=O)cc3c2OCC(=O)N3)cc1 [BC19484] | < 0.1 µM | > 10 µM |  |  |
| COc1ccc(NS(=O)(=O)c2cc(S(C)(=O)=O)cc3c2OCC(=O)N3)cc1 [BC19485] | < 0.1 µM | > 10 µM |  |  |
| Cc1ccc(NS(=O)(=O)c2cc(S(C)(=O)=O)cc3c2OCC(=O)N3)cc1Cl [BC19486] | < 0.1 µM | > 10 µM |  |  |
| CCc1cccc(NS(=O)(=O)c2cc(S(C)(=O)=O)cc3c2OCC(=O)N3)c1 [BC19487] | 0.1 to 1 µM | > 10 µM |  |  |
| Cc1ccc(NS(=O)(=O)c2cc(S(C)(=O)=O)cc3c2OCC(=O)N3)cc1 [BC19488] | < 0.1 µM | > 10 µM |  |  |
| Cc1c(Cl)cc2c(c1S(=O)(=O)Nc1ccc(F)c(F)c1)OCC(=O)N2 [BC19489] | < 0.1 µM | > 10 µM |  |  |
| Cc1c(Cl)cc2c(c1S(=O)(=O)Nc1ccc(OC(F)(F)F)cc1)OCC(=O)N2 [BC19490] | < 0.1 µM | > 10 µM |  |  |

Now from value to compound:

| IC50 (NF-κB; [1]) | IC50 (TNF release; [2]) | IC50 (NF-κB; LPS-stimulated) | IC50 (TNF release; [3]) | Compound |
| --- | --- | --- | --- | --- |
| < 0.1 µM | > 10 µM |  |  | CCS(=O)(=O)c1cc2c(c(S(=O)(=O)Nc3ccc(Cl)cc3)c1)OCC(=O)N2 [BC19491] |
| < 0.1 µM | > 10 µM |  |  | CCc1ccc(NS(=O)(=O)c2cc(S(=O)(=O)CC)cc3c2OCC(=O)N3)cc1 [BC19492] |
| < 0.1 µM | > 10 µM |  |  | CCS(=O)(=O)c1cc2c(c(S(=O)(=O)Nc3ccc(C(C)C)cc3)c1)OCC(=O)N2 [BC19493] |
|  |  | 0.1 to 1 µM | > 10 µM | COCC(=O)N1CCC(C(=O)Cc2ccc3nc(-c4ccc(F)cc4)c(-c4ccc(F)cc4)nc3n2)CC1 [BC19494] |
|  |  | 0.1 to 1 µM | > 10 µM | N#Cc1cnc2nc(-c3ccc(F)cc3)c(-c3ccc(F)cc3)nc2c1 [BC19495] |
|  |  | < 0.1 µM | > 10 µM | Cn1cnnc1-c1cnc2nc(-c3ccc(F)cc3)c(-c3ccc(F)cc3)nc2c1 [BC19496] |
|  |  | < 0.1 µM | > 10 µM | O=C(NCCN1CCOCC1)c1ccc2nc(-c3ccc(Cl)cc3)c(-c3ccc(Cl)cc3)nc2c1 [BC19497] |
|  |  | > 10 µM | > 10 µM | CN1CCN(C(=O)c2ccc3nc(-c4cccc(N(C)C)c4)c(-c4cccc(N(C)C)c4)nc3c2)CC1 [BC19498] |
|  |  | 1 to 10 µM | > 10 µM | C#CCNC(=O)c1ccc2nc(-c3cccc(N(C)C)c3)c(-c3cccc(N(C)C)c3)nc2c1 [BC19499] |
|  |  | > 10 µM | > 10 µM | CN(C)c1cccc(-c2nc3ccc(C(=O)O)cc3nc2-c2cccc(N(C)C)c2)c1 [BC19500] |
|  |  | > 10 µM | > 10 µM | CN(C)c1cccc(-c2nc3ccc(C(=O)NCCN4CCOCC4)cc3nc2-c2cccc(N(C)C)c2)c1 [BC19501] |
|  |  | > 10 µM | > 10 µM | CN(C)c1cccc(-c2nc3ccc(C(=O)NCCO)cc3nc2-c2cccc(N(C)C)c2)c1 [BC19502] |
|  |  | 1 to 10 µM | 1 to 10 µM | O=C(NCCN1CCOCC1)c1ccc2nc(-c3ccc(OC(F)(F)F)cc3)c(-c3ccc(OC(F)(F)F)cc3)nc2c1 [BC19503] |
|  |  | 0.1 to 1 µM | > 10 µM | O=S(=O)(NCCN1CCOCC1)c1ccc2nc(-c3ccc(F)cc3)c(-c3ccc(F)cc3)nc2c1 [BC19504] |
|  |  | 0.1 to 1 µM | > 10 µM | O=S(=O)(NC1CC1)c1ccc2nc(-c3ccc(F)cc3)c(-c3ccc(F)cc3)nc2c1 [BC19505] |
|  |  | 0.1 to 1 µM | > 10 µM | O=S(=O)(NCC1CC1)c1ccc2nc(-c3ccc(F)cc3)c(-c3ccc(F)cc3)nc2c1 [BC19506] |

| IC50 (NF-κB; [1]) | IC50 (TNF release; [2]) | IC50 (NF-κB; LPS-stimulated) | IC50 (TNF release; [3]) | Compound |
| --- | --- | --- | --- | --- |
|  |  | < 0.1 µM | > 10 µM | COCCNS(=O)(=O)c1ccc2nc(-c3ccc(F)cc3)c(-c3ccc(F)cc3)nc2c1 [BC19507] |
|  |  | 0.1 to 1 µM | 1 to 10 µM | O=S(=O)(CCCCN1CCOCC1)c1ccc2nc(-c3ccc(F)cc3)c(-c3ccc(F)cc3)nc2c1 [BC19508] |
|  |  | < 0.1 µM | > 10 µM | O=S(=O)(NCCCO)c1ccc2nc(-c3ccc(F)cc3)c(-c3ccc(F)cc3)nc2c1 [BC19509] |
|  |  | 0.1 to 1 µM | > 10 µM | CN1CCN(c2ccc3nc(-c4ccc(F)cc4)c(-c4ccc(F)cc4)nc3c2)CC1 [BC19510] |
|  |  | < 0.1 µM | > 10 µM | CC(=O)N1CCN(c2ccc3nc(-c4ccc(F)cc4)c(-c4ccc(F)cc4)nc3c2)CC1 [BC19511] |
|  |  | 0.1 to 1 µM | > 10 µM | N#Cc1ccc2nc(-c3ccc(F)cc3)c(-c3ccc(F)cc3)nc2n1 [BC19512] |
|  |  | < 0.1 µM | > 10 µM | O=C(c1ccc2nc(-c3ccc(F)cc3)c(-c3ccc(F)cc3)nc2c1)N1CCN(CCO)CC1 [BC19513] |
|  |  | 0.1 to 1 µM | 1 to 10 µM | O=C(c1ccc2nc(-c3ccc(F)cc3)c(-c3ccc(F)cc3)nc2c1)N1CCN(CCOCCO)CC1 [BC19514] |
| > 10 µM | > 10 µM |  |  | O=c1[nH]ccc2cc([S+]([O-])c3ccc(Cl)cc3)ccc12 (stereo not drawn) [BC19515] |
| > 10 µM | > 10 µM |  |  | O=c1[nH]ccc2cc(S(=O)(=O)c3ccc(Cl)cc3)ccc12 [BC19516] |
| > 10 µM | > 10 µM |  |  | Cc1ccc([S+]([O-])c2ccc3c(=O)[nH]ccc3c2)cc1 (stereo not drawn) [BC19517] |
| > 10 µM | > 10 µM |  |  | Cc1ccc(S(=O)(=O)c2ccc3c(=O)[nH]ccc3c2)cc1 [BC19518] |
| > 10 µM | > 10 µM |  |  | O=c1[nH]ccc2cc([S+]([O-])c3cccc(F)c3)ccc12 (stereo not drawn) [BC19519] |
| > 10 µM | > 10 µM |  |  | O=c1[nH]ccc2cc(S(=O)(=O)c3cccc(F)c3)ccc12 [BC19520] |
|  |  | < 0.1 µM | 0.1 to 1 µM | CCCS(=O)(=O)c1oc(-c2ccccc2)nc1S(=O)(=O)c1ccc(Cl)cc1 [BC19521] |
|  |  | 1 to 10 µM | > 10 µM | CS(=O)(=O)c1[nH]c(-c2ccccc2)nc1S(=O)(=O)c1ccc(F)cc1 [BC19522] |
